Test results: PubChem BioAssay AID2060606 (Molecular Pharmacology Branch, DTP, NCI, 2025)

Tested on: 922993-354-T-J3-PDC complex spheroids, viability, % test/control
Assay: Anticancer human tumor 922993-354-T-J3-PDC patient-derived endometrial carcinoma cell line growth inhibition [CLK]
Settings: for IC50: curve of first compound; for viability, T/C: stronger effect = lower value; active means viability on the fitted dose curve at most 10% of control; inactive means the rest
How it was run: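 Multi-cell-type spheroids combined patient-derived tumor cells with HUVEC endothelial cells and human mesenchymal stem cells. Paired agents were dosed in half-log steps down from about clinical Cmax, or from 10 microM where Cmax was unknown.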

[1] = second compound 0.0316 µM, first compound 0.00316 µM
[2] = second compound 0.0316 µM, first compound 0.01 µM
[3] = second compound 0.0316 µM, first compound 0.0316 µM
[4] = second compound 0.0316 µM, first compound 0.1 µM
[5] = second compound 0.0316 µM, first compound 0.316 µM
[6] = second compound 0.0316 µM, first compound 1 µM
[7] = second compound 0.1 µM, first compound 0.00316 µM
[8] = second compound 0.1 µM, first compound 0.01 µM
[9] = second compound 0.1 µM, first compound 0.0316 µM
[10] = second compound 0.1 µM, first compound 0.1 µM
[11] = second compound 0.1 µM, first compound 0.316 µM
[12] = second compound 0.1 µM, first compound 1 µM
[13] = second compound 0.316 µM, first compound 0.00316 µM
[14] = second compound 0.316 µM, first compound 0.01 µM
[15] = second compound 0.316 µM, first compound 0.0316 µM
[16] = second compound 0.316 µM, first compound 0.1 µM
[17] = second compound 0.316 µM, first compound 0.316 µM
[18] = second compound 0.316 µM, first compound 1 µM
[19] = second compound 1 µM, first compound 0.00316 µM
[20] = second compound 1 µM, first compound 0.01 µM
[21] = second compound 1 µM, first compound 0.0316 µM
[22] = second compound 1 µM, first compound 0.1 µM
[23] = second compound 1 µM, first compound 0.316 µM
[24] = second compound 1 µM, first compound 1 µM
[25] = second compound 3.16 µM, first compound 0.00316 µM
[26] = second compound 3.16 µM, first compound 0.01 µM
[27] = second compound 3.16 µM, first compound 0.0316 µM
[28] = second compound 3.16 µM, first compound 0.1 µM
[29] = second compound 3.16 µM, first compound 0.316 µM
[30] = second compound 3.16 µM, first compound 1 µM
[31] = second compound 10 µM, first compound 0.00316 µM
[32] = second compound 10 µM, first compound 0.01 µM
[33] = second compound 10 µM, first compound 0.0316 µM
[34] = second compound 10 µM, first compound 0.1 µM
[35] = second compound 10 µM, first compound 0.316 µM
[36] = second compound 10 µM, first compound 1 µM
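Further: spheroids exposed to the agents for 7 days before readout.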

CCN1CCN(Cc2ccc(Nc3ncc(F)c(-c4cc(F)c5nc(C)n(C(C)C)c5c4)n3)nc2)CC1 + CN1CCN(c2cc(C(=O)Nc3cc4cc(-c5cnn(C)c5)ccc4cn3)ccn2)CC1
inactive: viability, T/C [1] 106% | viability, T/C [2] 110% | viability, T/C [3] 87.4% | viability, T/C [4] 83.3% | viability, T/C [5] 58.9% | viability, T/C [6] 57.3% | viability, T/C [7] 88.1% | viability, T/C [8] 91.8% | viability, T/C [9] 75.8% | viability, T/C [10] 66.4% | viability, T/C [11] 58.8% | viability, T/C [12] 60.5% | viability, T/C [13] 46.5% | viability, T/C [14] 37% | viability, T/C [15] 34.4% | viability, T/C [16] 37% | viability, T/C [17] 36.4% | viability, T/C [18] 38.6%
active: viability, T/C [19] 0.13% | viability, T/C [20] 0.79% | viability, T/C [21] 0.77% | viability, T/C [22] 0.13% | viability, T/C [23] 1.01% | viability, T/C [24] 0.64% | viability, T/C [25] 0.1% | viability, T/C [26] 1.24% | viability, T/C [27] 0.11% | viability, T/C [28] 0.13% | viability, T/C [29] 0.16% | viability, T/C [30] 0.84% | viability, T/C [31] 0.13% | viability, T/C [32] 0.16% | viability, T/C [33] 1.7% | viability, T/C [34] 0.15% | viability, T/C [35] 2.3% | viability, T/C [36] 2.5%
> 1000 nM: IC50 (second compound 0.0316 µM) | IC50 (second compound 0.1 µM)
< 3.16 nM: IC50 (second compound 0.316 µM) | IC50 (second compound 1 µM) | IC50 (second compound 3.16 µM) | IC50 (second compound 10 µM)

COc1c(OCCCN2CCOCC2)ccc2c3n(c(=NC(=O)c4cnc(N)nc4)nc12)CCN3 + CN1CCN(c2cc(C(=O)Nc3cc4cc(-c5cnn(C)c5)ccc4cn3)ccn2)CC1
< 3.16 nM: IC50 (second compound 0.316 µM) | IC50 (second compound 1 µM) | IC50 (second compound 3.16 µM) | IC50 (second compound 10 µM)
active: viability, T/C [17] 6.2% | viability, T/C [18] 2.87% | viability, T/C [19] 0.13% | viability, T/C [20] 1.13% | viability, T/C [21] 0.12% | viability, T/C [22] 0.08% | viability, T/C [23] 1.11% | viability, T/C [24] 0.77% | viability, T/C [25] 0.42% | viability, T/C [26] 0.12% | viability, T/C [27] 0.38% | viability, T/C [28] 0.15% | viability, T/C [29] 1.16% | viability, T/C [30] 1.38% | viability, T/C [31] 0.08% | viability, T/C [32] 0.15% | viability, T/C [33] 1.41% | viability, T/C [34] 0.15% | viability, T/C [35] 3.12% | viability, T/C [36] 2.42%
inactive: viability, T/C [1] 112% | viability, T/C [2] 116% | viability, T/C [3] 86.5% | viability, T/C [4] 59.7% | viability, T/C [5] 32.2% | viability, T/C [6] 9.62% | viability, T/C [7] 91.7% | viability, T/C [8] 99.9% | viability, T/C [9] 89.9% | viability, T/C [10] 58.1% | viability, T/C [11] 32.4% | viability, T/C [12] 12.1% | viability, T/C [13] 48.1% | viability, T/C [14] 47.9% | viability, T/C [15] 39.8% | viability, T/C [16] 18.8%
148 nM: IC50 (second compound 0.0316 µM)
151 nM: IC50 (second compound 0.1 µM)
